What is called IC50 is the concentration at which inhibition is half-maximal.

Molecules are shown by their SMILES.

Test [1] addresses T1, SIK1 kinase (aa1-303, Thermo Fisher) (Homo sapiens, UniProt P57059).
T1 construct: SIK1 kinase (aa1-303, Thermo Fisher); purchased Thermo Fisher
The experiment in a line: Biochemical activities determination for SIK1 protein (TR-FRET). The note with it: 110 uM ATP, 0.5 μM STK1 substrate. On the procedure:
1. Biochemical Activities Determination for SIK1 Protein
(§1) Compounds were tested for inhibition of SIK1 kinase (aa1-303, Thermo Fisher) in assays based on the time-resolved fluorescence-resonance energy transfer (TR-FRET) methodology. The assays were carried out in 384-well low volume white plates in a reaction mixture containing SIK1 kinase, 110 uM ATP, 0.5 μM STK1 substrate and 0-10 μM compound in buffer containing 25 mM Tris, 0.01% Trition X-100, 0.5 mM EGTA, 5 mM MgCl2, 2.5 mM DTT, pH=7.5. The kinase was incubated with compounds for 60 minutes at room temperature and the reaction was initiated by the addition of ATP and STK1 substrate. After reaction at room temperature for 180 minutes, an equal volume of stop/detection solution was added according to the manufacture's instruction (CisBio Bioassays). The stop/detection solution contained STK Antibody-Cryptate and XL665-conjugated streptavidin (Cat: 62ST1PEC, Cisbio) in Detection Buffer (Cat: 62SDBRDF, Cisbio). Plates were sealed and incubated at room temperature for overnight, and the TR-FRET signals (ratio of fluorescence emission at 665 nm over emission at 620 nm with excitation at 337 nm wavelength) were recorded on a PHERAstar FS plate reader (BMG Labtech). Phosphorylation of STK1 substrate led to the binding of STK Antibody-Cryptate to the biotinylated SIK1 substrate, which places fluorescent donor (Eu^3+ crypate) in close proximity to the accepter (Streptavidin-XL665), thus resulting in a high degree of fluorescence resonance energy transfer from the donor fluorophore (at 620 nm) to the acceptor fluorophore (at 665 nm). […] The IC50 for each compound was derived from fitting the data to the four-parameter logistic equation by Dotmatics.
(In general: In TR-FRET formats the signal depends on donor and acceptor labels being close together.)

Test [2] has as its target T2, SIK2 kinase (full length, Thermo Fisher) (Homo sapiens, UniProt Q9H0K1).
T2 construct: SIK2 kinase (full length, Thermo Fisher); purchased Thermo Fisher
The experiment in a line: Biochemical activities determination for SIK2 protein (TR-FRET). Particulars: 80 uM ATP, 0.5 μM substrate. On the procedure: 2. Biochemical Activities Determination for SIK2 Protein
as §1, with “of SIK2” for “of SIK1”, “kinase (full length,” for “kinase (aa1-303,”, “containing SIK2” for “containing SIK1”, “kinase, 80” for “kinase, 110”, “μM […]” for “μM STK1”, “biotinylated STK1” for “biotinylated SIK1”

Test [3] concerns the target T3, SIK3 kinase (aa59-365, Thermo Fisher) (Homo sapiens, UniProt Q9Y2K2).
T3 construct: SIK3 kinase (aa59-365, Thermo Fisher); purchased Thermo Fisher
The experiment in a line: Biochemical activities determination for SIK3 protein (TR-FRET). Particulars: 125 uM ATP, 0.5 μM STK1 substrate. On the procedure:
3. Biochemical Activities Determination for SIK3 Protein
Compounds were tested for inhibition of SIK3 kinase (aa59-365, Thermo Fisher) in assays based on the time-resolved fluorescence-resonance energy transfer (TR-FRET) methodology. The assays were carried out in 384-well low volume white plates in a reaction mixture containing SIK3 kinase, 125 uM ATP, 0.5 μM STK1 substrate and 0-10 μM compound in buffer containing 25 mM Tris, 0.01% Trition X-100, 0.5 mM EGTA, 5 mM MgCl2, 2.5 mM DTT, PH=7.5. The kinase was incubated with compound for 60 minutes at room temperature and the reaction was initiated by the addition of ATP and STK1 substrate. After reaction at room temperature for 180 minutes, an equal volume of stop/detection solution was added according to the manufacture's instruction (CisBio Bioassays). The stop/detection solution contained STK Antibody-Cryptate and XL665-conjugated streptavidin (Cat: 62ST1PEC, Cisbio) in Detection Buffer (Cat: 62SDBRDF, Cisbio). Plates were sealed and incubated at room temperature for overnight, and the TR-FRET signals (ratio of fluorescence emission at 665 nm over emission at 620 nm with excitation at 337 nm wavelength) were recorded on a PHERAstar FS plate reader (BMG Labtech). Phosphorylation of STK1 substrate led to the binding of STK Antibody-Cryptate to the biotinylated STK1 substrate, which places fluorescent donor (Eu^3+ crypate) in close proximity to the accepter (Streptavidin-XL665), thus resulting in a high degree of fluorescence resonance energy transfer from the donor fluorophore (at 620 nm) to the acceptor fluorophore (at 665 nm). […] The IC50 for each compound was derived from fitting the data to the four-parameter logistic equation by Dotmatics.

T3 sequence (Q9Y2K2 59-365): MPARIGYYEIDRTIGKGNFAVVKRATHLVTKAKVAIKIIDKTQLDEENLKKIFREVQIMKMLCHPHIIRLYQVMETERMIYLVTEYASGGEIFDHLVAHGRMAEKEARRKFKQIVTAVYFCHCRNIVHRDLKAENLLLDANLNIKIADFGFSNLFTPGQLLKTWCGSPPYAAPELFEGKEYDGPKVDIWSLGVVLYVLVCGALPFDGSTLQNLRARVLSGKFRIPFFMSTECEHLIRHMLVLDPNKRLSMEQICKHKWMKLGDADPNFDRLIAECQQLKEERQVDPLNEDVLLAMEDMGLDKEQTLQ
T2 sequence (Q9H0K1 whole entry): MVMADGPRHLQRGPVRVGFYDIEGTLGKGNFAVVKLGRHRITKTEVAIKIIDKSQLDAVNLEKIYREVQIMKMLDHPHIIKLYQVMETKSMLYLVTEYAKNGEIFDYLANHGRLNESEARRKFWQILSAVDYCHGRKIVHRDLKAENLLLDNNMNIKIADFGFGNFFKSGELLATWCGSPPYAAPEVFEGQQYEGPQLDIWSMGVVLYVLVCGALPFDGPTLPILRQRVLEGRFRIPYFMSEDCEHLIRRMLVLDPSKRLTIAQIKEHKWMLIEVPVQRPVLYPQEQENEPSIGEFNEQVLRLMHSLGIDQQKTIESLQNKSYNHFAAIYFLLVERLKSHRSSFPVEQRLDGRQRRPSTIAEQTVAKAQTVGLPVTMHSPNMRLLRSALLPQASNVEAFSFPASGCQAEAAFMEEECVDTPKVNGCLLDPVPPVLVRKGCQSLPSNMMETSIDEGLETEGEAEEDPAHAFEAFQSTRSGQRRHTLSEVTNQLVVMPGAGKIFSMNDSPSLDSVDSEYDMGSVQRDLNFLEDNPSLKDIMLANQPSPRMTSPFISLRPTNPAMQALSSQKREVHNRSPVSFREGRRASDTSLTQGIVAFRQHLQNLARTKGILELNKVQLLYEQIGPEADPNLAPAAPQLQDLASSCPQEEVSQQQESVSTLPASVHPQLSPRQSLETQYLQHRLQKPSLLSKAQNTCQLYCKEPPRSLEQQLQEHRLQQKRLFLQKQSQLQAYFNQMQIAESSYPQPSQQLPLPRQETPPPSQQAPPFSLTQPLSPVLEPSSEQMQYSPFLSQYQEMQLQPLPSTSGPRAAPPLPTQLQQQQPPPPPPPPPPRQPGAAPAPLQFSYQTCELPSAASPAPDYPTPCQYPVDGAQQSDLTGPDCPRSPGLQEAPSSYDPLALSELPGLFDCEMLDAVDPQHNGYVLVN
T1 sequence (P57059 1-303): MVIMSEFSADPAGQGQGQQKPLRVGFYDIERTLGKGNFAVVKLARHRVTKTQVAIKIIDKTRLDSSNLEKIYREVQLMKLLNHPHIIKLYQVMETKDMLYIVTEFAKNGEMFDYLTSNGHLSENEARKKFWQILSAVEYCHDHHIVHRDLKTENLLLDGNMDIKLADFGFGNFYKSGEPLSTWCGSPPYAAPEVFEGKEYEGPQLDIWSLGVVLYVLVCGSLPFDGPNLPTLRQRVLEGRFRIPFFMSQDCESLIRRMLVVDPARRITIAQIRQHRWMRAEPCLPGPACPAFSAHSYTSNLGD

Turning to `COc1cc(-c2coc3cc(OCCN4CCC(C)CC4)ccc23)cc(OC(F)F)c1C(=O)N[C@@H]1C[C@@H]1F` [Compound 94, 2-(difluoromethoxy)-N-((1R,2S)-2-fluorocyclopropyl)-6-methoxy-4-(6-(2-(4-methylpiperidin-1-yl)ethoxy)benzofuran-3-yl)benzamide], the values for the concentration for half-maximal inhibition (IC50) in test [1], in test [2] and in test [3] were 2870 nM, 33 nM and 74 nM, respectively.
The matching figures for `COc1cc(-c2coc3cc(-c4cnn(C)c4)ccc23)cc2c1C(=O)N(CC(F)(F)F)[C@@H](C)C2` [Compound 29A, (S)-8-methoxy-3-methyl-6-(6-(1-methyl-1H-pyrazol-4-yl)benzofuran-3-yl)-2-(2,2,2-trifluoroethyl)-3,4-dihydroisoquinolin-1 (2H)-one]: 216 nM, 15 nM and 42 nM.
For the molecule `O=C1c2c(cc(-c3coc4cc(-c5cnn(C6CCNC6)c5)ccc34)cc2OC(F)F)CCN1CC(F)(F)F` (stereo not drawn) [Compound 48, 8-(difluoromethoxy)-6-(6-(1-(pyrrolidin-3-yl)-1H-pyrazol-4-yl)benzofuran-3-yl)-2-(2,2,2-trifluoroethyl)-3,4-dihydroisoquinolin-1 (2H)-one], the IC50 in test [1] was 524 nM; in test [2], 11 nM; in test [3], 63 nM.
As to `COc1cc(-c2coc3cc(-c4cnn(C)c4)ccc23)cc2c1C(=O)N(Cc1ccncc1)CC2` [Compound 30, 8-methoxy-6-(6-(1-methyl-1H-pyrazol-4-yl)benzofuran-3-yl)-2-(pyridin-4-ylmethyl)-3,4-dihydroisoquinolin-1 (2H)-one], the IC50 in test [1] was determined as 2610 nM; in test [2], 531 nM; in test [3], 1110 nM.
The like results for `COc1cc(-c2coc3cc(OCCN4CC[C@H](C)C4)ccc23)cc(OC(F)F)c1C(=O)N[C@@H]1C[C@@H]1F` [Compound 81, 2-(difluoromethoxy)-N-((1R,2S)-2-fluorocyclopropyl)-6-methoxy-4-(6-(2-((S)-3-methylpyrrolidin-1-yl)ethoxy)benzofuran-3-yl)benzamide] were, in that order, 1890 nM, 11 nM and 32 nM.
The like results for `COc1cc(-c2coc3cc(OCCCN4CCCC4)ccc23)cc(OC(F)F)c1C(=O)N[C@@H]1C[C@@H]1F` [Compound 72, 2-(difluoromethoxy)-N-((1R,2S)-2-fluorocyclopropyl)-6-methoxy-4-(6-(3-(pyrrolidin-1-yl)propoxy)benzofuran-3-yl)benzamide] were, in that order, 461 nM, 6 nM and 31 nM.
With `COc1cc(-c2coc3cc(-c4cn(C)nc4C(F)(F)F)ccc23)cc2c1C(=O)N(CC(F)(F)F)CC2` [Compound 16, 8-methoxy-6-(6-(1-methyl-3-(trifluoromethyl)-1H-pyrazol-4-yl)benzofuran-3-yl)-2-(2,2,2-trifluoroethyl)-3,4-dihydroisoquinolin-1 (2H)-one], the IC50 was greater than 10000 nM in test [1], 3350 nM in test [2] and 5840 nM in test [3].
For `COc1cc(-c2coc3cc(OCCN4CCCC4)ccc23)cc(OC(F)F)c1C(=O)N[C@H]1C[C@@H]1F` [Compound 99, 2-(difluoromethoxy)-N-((1S,2S)-2-fluorocyclopropyl)-6-methoxy-4-(6-(2-(pyrrolidin-1-yl)ethoxy)benzofuran-3-yl)benzamide], the half-maximal inhibitory concentration (IC50) in test [1] is greater than 10000 nM; in test [2], 269 nM; in test [3], 759 nM.
As for `COc1cc(-c2coc3cc(OCCN4CCC(F)(F)C4)ccc23)cc(OC(F)F)c1C(=O)N[C@@H]1C[C@@H]1F` [Compound 87, 2-(difluoromethoxy)-4-(6-(2-(3,3-difluoropyrrolidin-1-yl)ethoxy)benzofuran-3-yl)-N-((1R,2S)-2-fluorocyclopropyl)-6-methoxybenzamide], the half-maximal inhibitory concentration (IC50) in test [1] worked out at 1090 nM; in test [2] it was 78 nM; in test [3], 22 nM.
As to `COc1cc(-c2coc3cc(-c4cnn(C)c4)ccc23)cc2c1C(=O)N(CC#N)CC2` [Compound 20, 2-(8-methoxy-6-(6-(1-methyl-1H-pyrazol-4-yl)benzofuran-3-yl)-1-oxo-3,4-dihydroisoquinolin-2 (1H)-yl) acetonitrile], the concentration for half-maximal inhibition (IC50) in test [1] was determined as 362 nM; in test [2], 12 nM; in test [3], 14 nM.
As for `COc1cc(-c2coc3cc(-c4ccc(C)nn4)ccc23)cc(OC(F)F)c1C(=O)NC1CC1` [Compound 133, N-cyclopropyl-2-(difluoromethoxy)-6-methoxy-4-(6-(6-methylpyridazin-3-yl)benzofuran-3-yl)benzamide], the figures for the half-inhibitory concentration (IC50) in test [1], in test [2] and in test [3] were greater than 10000 nM, 199 nM and 199 nM, respectively.
Take `CN1CCC(n2cc(-c3ccc4c(-c5cc6c(c(OC(F)F)c5)C(=O)N(CC#N)CC6)coc4c3)cn2)C1` (stereo not drawn) [Compound 56, 2-(8-(difluoromethoxy)-6-(6-(1-(1-methylpyrrolidin-3-yl)-1H-pyrazol-4-yl)benzofuran-3-yl)-1-oxo-3,4-dihydroisoquinolin-2 (1H)-yl) acetonitrile]: the 50% inhibitory concentration (IC50) in test [1] was found to be 315 nM; in test [2], 2.6 nM; in test [3], 15 nM.
With `COc1cc(-c2coc3cc(OCCN4CCCC4)ccc23)cc(OC(F)F)c1C(=O)N[C@H]1CCC[C@H]1O` [Compound 126, 2-(difluoromethoxy)-N-((1S,2R)-2-hydroxycyclopentyl)-6-methoxy-4-(6-(2-(pyrrolidin-1-yl)ethoxy)benzofuran-3-yl)benzamide], the IC50 in test [1] was greater than 10000 nM; in test [2] it was 224 nM; in test [3] it was 878 nM.
For the molecule `COc1cc(-c2coc3cc(OCc4cncn4C)ccc23)cc2c1C(=O)N(CC(F)(F)F)CC2` [Compound 60, 8-methoxy-6-(6-((1-methyl-1H-imidazol-5-yl)methoxy)benzofuran-3-yl)-2-(2,2,2-trifluoroethyl)-3,4-dihydroisoquinolin-1 (2H)-one], the half-inhibitory concentration (IC50) in test [1] is greater than 10000 nM; in test [2], 635 nM; in test [3], 421 nM.
